Results: patent US8821836B2, “SPARC binding peptides and uses thereof” (Abraxis BioScience, LLC, priority 2008, dated 2014)
“Also recorded” adds a separate entry of the source.

What was measured:
[1] = test system: PC3 prostatecarcinoma xenograft; test: Antitumor activity in PC3 xenograft model; format: in vivo, nude mouse; settings: for tumor growth inhibition: FIG. 13
Experimental: FIG. 13 depicts the antitumor activity of PD 15 and PD 21 in a human prostate cancer/nude mouse model system.
The PD 15 and PD 21-Fc fusion proteins were assayed for antitumor activity in a murine-human PC3 prostatecarcinoma xenograft model.

SPARC = molecular target: T1, SPARC (Homo sapiens, UniProt P09486); test: Concentration dependent binding ELISA; settings: for binding to SPARC compared with anti-SPARC antibody: ELISA, FIG. 9
T1 sequence (P09486 18-303): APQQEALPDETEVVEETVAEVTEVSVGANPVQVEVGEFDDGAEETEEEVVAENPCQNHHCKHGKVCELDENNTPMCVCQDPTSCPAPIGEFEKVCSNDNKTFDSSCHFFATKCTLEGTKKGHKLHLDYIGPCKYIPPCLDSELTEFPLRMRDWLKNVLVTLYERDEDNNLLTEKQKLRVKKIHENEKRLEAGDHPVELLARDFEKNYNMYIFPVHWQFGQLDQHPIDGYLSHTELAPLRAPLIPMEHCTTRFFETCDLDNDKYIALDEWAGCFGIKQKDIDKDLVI

[2] = test system: non-SPARC proteins in 5,000 proteins on the array; test: Protein microarray analysis (Invitrogen ProtoArray v.3), off target binding
Source text: FIG. 8 depicts the Protoarray used to define off target binding of PD 15 and PD21.

[3] = test system: sections of a human brain tumor (SPARC expressing tumor); test: Immunohistochemical staining of tumor sections; settings: IHC, FIGS. 10 and 11
Source text: FIGS. 10 and 11 show the co-localization of SPARC (as indicated by immunohistochemical (IHC) staining with an anti-SPARC antibody) and the binding of PD 15 and PD 21 in sections of a human brain tumor (which have been epitope tagged for IHC staining.).

HT29 colon xenograft = test: Antitumor activity in HT29 xenograft model; format: in vivo, mouse; settings: FIG. 14

| Substance | tumor growth inhibition [1] | affinity for SPARC, PD 15 versus PD 21 (SPARC; ELISA and IHC experiments) | binding to SPARC compared with anti-SPARC antibody (SPARC) | cross reactivity with non-SPARC proteins [2] | binding to / staining of tumor tissue [3] | antitumor activity, comparison [1] | antitumor activity, comparison (HT29 colon xenograft) |
| --- | --- | --- | --- | --- | --- | --- | --- |
| PD 15-Fc: fusion protein of SPARC binding peptide PD 15 with human IgG1 Fc domain (pFUSE-hIgG1-Fc2 vector) (YTRLHHWIPPQR) | statistically significant tumor growth inhibition |  |  |  |  |  |  |
| YTRLHHWIPPQR [PD 15] |  | higher affinity for SPARC than PD 21 | only slightly weaker than that of an anti-SPARC antibody | only minimal cross reactivity | binding | better antitumor activity than PD21 |  |
| VTPLLKFRALSS [PD 21] |  |  | only slightly weaker than that of an anti-SPARC antibody | only minimal cross reactivity | binding |  | better antitumor activity than PD 15; also recorded: activity closely equivalent to Abraxane |
| PD 21-Fc: fusion protein of SPARC binding peptide PD 21 with human IgG1 Fc domain (pFUSE-hIgG1-Fc2 vector) (VTPLLKFRALSS) | statistically significant tumor growth inhibition |  |  |  |  |  |  |
